Laboratory results as given in the supplement of paper PMC10307832.

What was measured:
Assay in all cases: relative viability (nuclei count vs DMSO), 5 days (fraction); higher = more cells survive
201T = tested on: 201T
Summary of the method: (§1)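 Relative viability is defined as nuclei in treated wells over nuclei in vehicle wells. Duplicate plates were run and medians reported. Lung cancer cell lines in 1536-well plates were dosed by pin tool one day after seeding, with one drug or with a fixed anchor-drug dose plus five library-drug doses (not always all listed) in √10 steps, and nuclei were counted after 5 days.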

LU99A = tested on: LU99A
Summary of the method: as §1

NCI-H838 = tested on: NCI-H838
Summary of the method: as §1

NCI-H1651 = tested on: NCI-H1651
Summary of the method: as §1

A-427 = tested on: A-427
Summary of the method: as §1

LK-2 = tested on: LK-2
Summary of the method: as §1

NCI-H1793 = tested on: NCI-H1793
Summary of the method: as §1

NCI-H727 = tested on: NCI-H727
Summary of the method: as §1

LCLC-97TM1 = tested on: LCLC-97TM1
Summary of the method: as §1

NCI-H23 = tested on: NCI-H23
Summary of the method: as §1

H3255 = tested on: H3255
Summary of the method: as §1

NCI-H460 = tested on: NCI-H460
Summary of the method: as §1

SMILES: COc1cc(N2CCC(C(N)=O)CC2)ccc1Nc1nc(N)c(Cl)c(Nc2ccccc2S(=O)(=O)C(C)C)n1 [HG-5-88-01] + Nc1ncn([C@H]2C[C@H](O)[C@@H](CO)O2)c(=O)n1 [Decitabine] (partner 2 µM)
- relative viability (201T; first compound 0.04 µM): 0.856
- relative viability (201T; first compound 0.1265 µM): 0.864
- relative viability (201T; first compound 1.265 µM): 0.852
- relative viability (201T; first compound 4 µM): 0.891
- relative viability (LU99A; first compound 0.04 µM): 0.896
- relative viability (LU99A; first compound 0.1265 µM): 0.929
- relative viability (LU99A; first compound 0.4 µM): 0.915
- relative viability (LU99A; first compound 1.265 µM): 0.93
- relative viability (LU99A; first compound 4 µM): 0.839
- relative viability (NCI-H838; first compound 0.04 µM): 0.46
- relative viability (NCI-H838; first compound 0.1265 µM): 0.467
- relative viability (NCI-H838; first compound 0.4 µM): 0.491
- relative viability (NCI-H838; first compound 1.265 µM): 0.407
- relative viability (NCI-H838; first compound 4 µM): 0.341
- relative viability (NCI-H1651; first compound 0.04 µM): 0.536
- relative viability (NCI-H1651; first compound 0.1265 µM): 0.635
- relative viability (NCI-H1651; first compound 0.4 µM): 0.717
- relative viability (NCI-H1651; first compound 1.265 µM): 0.581
- relative viability (NCI-H1651; first compound 4 µM): 0.714
- relative viability (A-427; first compound 0.04 µM): 0.549
- relative viability (A-427; first compound 0.1265 µM): 0.598
- relative viability (A-427; first compound 0.4 µM): 0.603
- relative viability (A-427; first compound 1.265 µM): 0.585
- relative viability (A-427; first compound 4 µM): 0.547
- relative viability (LK-2; first compound 0.04 µM): 0.254
- relative viability (LK-2; first compound 0.1265 µM): 0.327
- relative viability (LK-2; first compound 0.4 µM): 0.386
- relative viability (LK-2; first compound 4 µM): 0.236
- relative viability (NCI-H1793; first compound 0.04 µM): 0.554
- relative viability (NCI-H1793; first compound 0.1265 µM): 0.518
- relative viability (NCI-H1793; first compound 0.4 µM): 0.701
- relative viability (NCI-H1793; first compound 1.265 µM): 0.408
- relative viability (NCI-H1793; first compound 4 µM): 0.499
- relative viability (NCI-H727; first compound 0.04 µM): 0.913
- relative viability (NCI-H727; first compound 0.1265 µM): 0.789
- relative viability (NCI-H727; first compound 0.4 µM): 0.837
- relative viability (NCI-H727; first compound 4 µM): 0.672
- relative viability (LCLC-97TM1; first compound 0.04 µM): 0.21
- relative viability (LCLC-97TM1; first compound 0.1265 µM): 0.219
- relative viability (LCLC-97TM1; first compound 0.4 µM): 0.209
- relative viability (LCLC-97TM1; first compound 1.265 µM): 0.229
- relative viability (LCLC-97TM1; first compound 4 µM): 0.128
- relative viability (NCI-H23; first compound 0.04 µM): 0.365
- relative viability (NCI-H23; first compound 0.1265 µM): 0.331
- relative viability (NCI-H23; first compound 0.4 µM): 0.327
- relative viability (NCI-H23; first compound 1.265 µM): 0.282
- relative viability (NCI-H23; first compound 4 µM): 0.329
- relative viability (H3255; first compound 0.04 µM): 0.589
- relative viability (H3255; first compound 0.1265 µM): 0.629
- relative viability (H3255; first compound 0.4 µM): 0.568
- relative viability (H3255; first compound 4 µM): 0.574
- relative viability (NCI-H460; first compound 0.04 µM): 0.478
- relative viability (NCI-H460; first compound 0.1265 µM): 0.493
- relative viability (NCI-H460; first compound 0.4 µM): 0.494
- relative viability (NCI-H460; first compound 1.265 µM): 0.578
